Values after ≈ are worked out from the molar mass of the structure shown. Where two headings read alike, the source gives them in different places.
Legend:
[1] = target: T1, E. coli DnaE (DNA polymerase III α-subunit from Escherichia coli) (Escherichia coli, UniProt P10443); test: In vitro DnaE single enzyme assay (E. coli); assay type: biochemical
T1 construct: EcDnaE (E. coli DnaE residues 1-1160); 6xHis (N); made in house; host or cells: E. coli BL21(DE3)
In short: (§1)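 His-tagged E. coli DnaE (residues 1-1160, 0.8 μg/ml) or S. aureus DnaE (residues 1-1065, 0.05 μg/ml) incubated 30 min at 30° C. with activated calf thymus DNA, 0.025 mM dATP/dGTP/dCTP and 0.011 mM 3H-dTTP in Tris pH 7.5/Mg acetate. TCA-precipitated labelled DNA counted.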

[2] = target: T2, S. aureus DnaE (DNA polymerase III α-subunit homolog from Staphylococcus aureus) (Staphylococcus aureus, UniProt Q5HF71); test: biochemical; assay type: biochemical
T2 construct: SaDnaE (S. aureus DnaE residues 1-1065); 6xHis (N); made in house; host or cells: E. coli BL21-AI
T2 sequence (Q5HF71 1-1065): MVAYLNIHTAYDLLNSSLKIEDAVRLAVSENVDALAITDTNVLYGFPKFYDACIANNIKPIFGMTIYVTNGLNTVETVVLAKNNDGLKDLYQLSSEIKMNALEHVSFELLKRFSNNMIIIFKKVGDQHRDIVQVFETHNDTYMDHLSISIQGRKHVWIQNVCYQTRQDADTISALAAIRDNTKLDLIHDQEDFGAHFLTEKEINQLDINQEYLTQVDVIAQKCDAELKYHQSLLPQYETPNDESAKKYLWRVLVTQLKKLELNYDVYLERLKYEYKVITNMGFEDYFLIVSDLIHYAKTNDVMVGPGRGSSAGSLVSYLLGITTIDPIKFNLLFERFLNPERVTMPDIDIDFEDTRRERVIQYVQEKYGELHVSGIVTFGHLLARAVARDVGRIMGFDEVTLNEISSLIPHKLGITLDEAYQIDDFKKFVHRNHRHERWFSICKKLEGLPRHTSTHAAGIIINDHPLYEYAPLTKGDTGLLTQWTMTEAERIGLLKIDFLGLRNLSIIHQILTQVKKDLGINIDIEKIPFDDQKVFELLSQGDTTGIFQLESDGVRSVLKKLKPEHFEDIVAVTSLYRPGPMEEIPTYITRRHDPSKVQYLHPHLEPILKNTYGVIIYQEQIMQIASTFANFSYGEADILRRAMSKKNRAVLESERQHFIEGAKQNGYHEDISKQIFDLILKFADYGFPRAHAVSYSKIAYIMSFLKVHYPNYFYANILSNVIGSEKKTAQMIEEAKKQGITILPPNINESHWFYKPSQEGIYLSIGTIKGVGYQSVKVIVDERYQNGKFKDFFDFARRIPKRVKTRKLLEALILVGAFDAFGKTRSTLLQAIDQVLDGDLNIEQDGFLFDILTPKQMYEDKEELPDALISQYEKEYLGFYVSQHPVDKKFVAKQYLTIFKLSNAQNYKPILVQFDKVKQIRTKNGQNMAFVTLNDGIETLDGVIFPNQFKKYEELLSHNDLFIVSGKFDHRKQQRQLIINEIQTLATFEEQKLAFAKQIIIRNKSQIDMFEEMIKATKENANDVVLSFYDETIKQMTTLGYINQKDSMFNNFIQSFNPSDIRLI
In short: as §1

[3] = test system: Escherichia coli MB5747 (LS 883, tolC); test: microbe, parasite or virus in culture; assay type: cell-based; settings: * = some reduction of growth versus control at […]; for MIC: Escherichia coli, read-out: E. coli LS883 tolC (MIC), MHII broth
[4] = test system: Pseudomonas aeruginosa MB5890 (CB1101, efflux-deleted); test: microbe, parasite or virus in culture; assay type: cell-based; settings: * = some reduction of growth versus control at […]; for MIC: Pseudomonas aeruginosa, read-out: P. aeruginosa MB5890 efflux-del (MIC), MHII broth
[5] = test system: Staphylococcus aureus MB6266 (MRSA COL); test: Nargenicin antibacterial assay (MIC), S. aureus; assay type: cell-based; settings: * = some reduction of growth versus control at […]; for MIC: Staphylococcus aureus, MRSA, read-out: S. aureus COL (MIC), MHII broth + 50% human serum
[6] = test system: Streptococcus pneumoniae MB6357 (CL 2883); test: Nargenicin antibacterial assay (MIC), S. pneumoniae; assay type: cell-based; settings: * = some reduction of growth versus control at […]; for MIC: Streptococcus pneumoniae, read-out: S. pneumoniae MB2883 (MIC), Isosensitest broth
[7] = read-out: E. coli DnaE IC50 (converted)
[8] = read-out: S. aureus DnaE IC50 (converted)

T1 sequence (P10443 whole entry, the tested form may be a part): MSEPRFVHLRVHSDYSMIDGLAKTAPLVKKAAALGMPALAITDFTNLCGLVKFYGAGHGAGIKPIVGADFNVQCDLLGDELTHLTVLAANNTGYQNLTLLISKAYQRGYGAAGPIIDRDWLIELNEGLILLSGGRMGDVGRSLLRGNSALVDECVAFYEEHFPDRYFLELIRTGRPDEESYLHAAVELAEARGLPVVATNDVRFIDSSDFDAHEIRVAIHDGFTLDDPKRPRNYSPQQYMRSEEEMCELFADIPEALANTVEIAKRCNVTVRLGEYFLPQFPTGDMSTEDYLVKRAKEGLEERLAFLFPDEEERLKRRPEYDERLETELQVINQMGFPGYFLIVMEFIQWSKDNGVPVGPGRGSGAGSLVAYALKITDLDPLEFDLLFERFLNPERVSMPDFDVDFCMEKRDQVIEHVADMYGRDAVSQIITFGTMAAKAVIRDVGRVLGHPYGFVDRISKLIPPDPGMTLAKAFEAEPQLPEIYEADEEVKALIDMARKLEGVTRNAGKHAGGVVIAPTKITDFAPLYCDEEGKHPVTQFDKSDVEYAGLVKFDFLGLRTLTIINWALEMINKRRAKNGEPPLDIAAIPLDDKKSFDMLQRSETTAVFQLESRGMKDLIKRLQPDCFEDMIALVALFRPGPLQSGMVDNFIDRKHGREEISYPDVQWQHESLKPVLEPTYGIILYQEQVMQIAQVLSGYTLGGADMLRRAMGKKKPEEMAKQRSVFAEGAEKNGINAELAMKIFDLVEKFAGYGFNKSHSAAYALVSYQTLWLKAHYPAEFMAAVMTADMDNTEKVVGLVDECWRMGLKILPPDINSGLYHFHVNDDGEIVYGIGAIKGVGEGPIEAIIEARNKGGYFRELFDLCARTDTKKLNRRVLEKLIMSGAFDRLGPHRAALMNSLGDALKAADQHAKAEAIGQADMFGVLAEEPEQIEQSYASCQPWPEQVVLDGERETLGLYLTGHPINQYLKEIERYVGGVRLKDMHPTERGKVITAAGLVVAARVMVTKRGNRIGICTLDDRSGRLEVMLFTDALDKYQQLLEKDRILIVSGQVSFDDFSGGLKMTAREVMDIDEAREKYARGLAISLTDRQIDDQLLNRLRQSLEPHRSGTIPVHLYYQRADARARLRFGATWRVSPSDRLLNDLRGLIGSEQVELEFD

| Structure (SMILES) | IC50 [1, 7] [µM] | IC50 ([2]; S. aureus DnaE IC50) [µM] | MIC [3] [µg/mL] | MIC [4] [µg/mL] | MIC [5] [µg/mL] | MIC [6] [µg/mL] | E. coli DnaE IC50 [1] [µg/mL] | S. aureus DnaE IC50 [2] [µg/mL] | E. coli LS883 tolC (MIC) ([3]; MHII broth) [µg/mL] | P. aeruginosa MB5890 efflux-del (MIC) ([4]; MHII broth) [µg/mL] | S. aureus COL (MIC) ([5]; MHII broth + 50% human serum) [µg/mL] | S. pneumoniae MB2883 (MIC) ([6]; Isosensitest broth) | IC50 ([1]; E. coli DnaE IC50) [µM] | IC50 [2, 8] [µM] |
| --- | --- | --- | --- | --- | --- | --- | --- | --- | --- | --- | --- | --- | --- | --- |
| CO[C@H]1CC2C=C[C@H]3[C@H]4O[C@]2(/C(C)=C/[C@@H](C)[C@@H]([C@@H](C)O)OC1=O)[C@@H]3[C@H](OC(N)=O)[C@@H](C)[C@H]4OC(=O)c1ccc[nH]1 (stereo partly drawn) [Example 38, (3R,4S,7S,10aR,11R,12R,13R,14R,14aS,14bS,E)-14-(carbamoyloxy)-4-((R)-1-hydroxyethyl)-7-methoxy-1,3,13-trimethyl-6-oxo-3,4,6,7,8,8a,10a,11,12,13,14,14 a-dodecahydro-11,14b-epoxynaphtho[2,1-e]oxecin-12-yl 1H-pyrrole-2-carboxylate] | ~197 | 0.0394 | 16 (≈ 28.6 µM) | > 128 | 32 | 128 (≈ 229 µM) |  |  |  |  |  |  |  |  |
| CO[C@H]1C[C@H]2C=C[C@H]3[C@H]4O[C@]2(/C(C)=C/[C@@H](C)[C@@H]([C@@H](C)OC(=O)NCC(=O)O)OC1=O)[C@@H]3[C@H](O)[C@@H](C)[C@H]4OC(=O)c1ccc[nH]1 [Example 12] | 114 | < 0.00973 | 32 (≈ 51.9 µM) | > 128 | > 128 | > 128 |  |  |  |  |  |  |  |  |
| COCCNC(=O)C(=O)O[C@H](C)[C@H]1OC(=O)[C@@H](OC)C[C@H]2C=CC3C4[C@H](O)[C@@H](C)[C@@H](OC(=O)c5ccc[nH]5)[C@@H]3O[C@]42/C(C)=C/[C@H]1C [Example 119] |  |  |  |  |  |  | 11 | 0.0012 | 0.25 | 8 | ≤0.125 | >128* μg/mL |  |  |
| CO[C@H]1CC2C=C[C@H]3[C@H]4O[C@]2(/C(C)=C/[C@@H](C)[C@@H]([C@@H](C)O)OC1=O)[C@@H]3[C@H](OC(=O)NS(=O)(=O)c1ccccc1)[C@@H](C)[C@H]4OC(=O)c1ccc[nH]1 (stereo partly drawn) [Example 40, (3R,4S,7S,10aR,11R,12R,13R,14R,14aS,14bS,E)-4-((R)-1-hydroxyethyl)-7-methoxy-1,3,13-trimethyl-6-oxo-14-(((phenylsulfonyl)carbamoyl)oxy)-3,4,6,7,8,8a,10a,11,12,13,14,14a-dodecahydro-11,14b-epoxynaphtho[2,1-e]oxecin-12-yl 1H-pyrrole-2-carboxylate] | > 143 | 1.57 | > 128 | > 128 | > 128 | > 128 |  |  |  |  |  |  |  |  |
| CNS(=O)(=O)CCNC(=O)O[C@H](C)[C@H]1OC(=O)[C@@H](OC)C[C@H]2C=C[C@H]3[C@H]4O[C@]2(/C(C)=C/[C@H]1C)[C@@H]3[C@H](O)[C@@H](C)[C@H]4OC(=O)c1ccc[nH]1 [Example 13] | > 147 | < 0.00883 | 8 (≈ 11.8 µM) | > 128 | 32 | > 128 |  |  |  |  |  |  |  |  |
| CO[C@H]1C[C@H]2C=C[C@H]3[C@H]4O[C@]2(/C(C)=C/[C@@H](C)[C@@H]([C@@H](C)O)OC1=O)[C@@H]3C(=O)[C@@H](C)[C@H]4OC(=O)c1ccc[nH]1 [Example 146, (3R,4S,7S,8aS,10aR,11R,12R,13S,14aR,14bS,E)-4-((R)-1-hydroxyethyl)-7-methoxy-1,3,13-trimethyl-6,14-dioxo-3,4,6,7,8,8a,10a,11,12,13,14,14a-dodecahydro-11,14b-epoxynaphtho[2,1-e]oxecin-12-yl 1H-pyrrole-2-carboxylate] | > 195 | 1.17 | 128 (≈ 249 µM) | > 128 | > 128 | 128 (≈ 249 µM) |  |  |  |  |  |  |  |  |
| CO[C@H]1C[C@H]2C=CC3C4[C@H](O)[C@@H](C)[C@@H](OC(=O)c5ccc[nH]5)[C@@H]3O[C@]42/C(C)=C/[C@@H](C)[C@@H]([C@@H](C)OS(=O)(=O)O)OC1=O [Example 198] | 20.1 | < 0.0101 | 4 (≈ 6.72 µM) | 64 (≈ 107 µM) | 4 | > 128 |  |  |  |  |  |  |  |  |
| CO[C@H]1C[C@H]2C=CC3C4[C@H](O)[C@@H](C)[C@@H](OC(=O)c5ccc[nH]5)[C@@H]3O[C@]42/C(C)=C/[C@@H](C)C([C@@H](C)O)NC1=O (stereo partly drawn) [Example 170] | > 194 | 2.53 | 128 (≈ 249 µM) | > 128 | > 128 | > 128 |  |  |  |  |  |  |  |  |
| CO[C@H]1C[C@H]2C=C[C@H]3[C@H]4O[C@]2(/C(C)=C/[C@@H](C)[C@@H]([C@@H](C)O)OC1=O)[C@@H]3[C@H](O)C(C)[C@@H]4NCCN1CCCC1.O=C(O)C(F)(F)F (stereo partly drawn) [Example 157] |  |  | > 128 | > 128 | > 128 | > 128 |  |  |  |  |  |  | > 158 | 3.32 |
| CO[C@H]1CC2C=C[C@H]3[C@H]4O[C@]2(/C(C)=C/[C@@H](C)[C@@H]([C@@H](C)OC(=O)OC2CCC(O)CC2)OC1=O)[C@@H]3[C@H](O)[C@@H](C)[C@H]4OC(=O)c1ccc[nH]1 (single isomer, unassigned) [Example 34] | 106 | 0.0106 | 32 (≈ 48.7 µM) | > 128 | 32 | 64 (≈ 97.3 µM) |  |  |  |  |  |  |  |  |
| CO[C@H]1C[C@H]2C=C[C@H]3[C@H]4O[C@]2(/C(C)=C/[C@@H](C)[C@@H]([C@@H](C)OC(=O)OCCO)OC1=O)[C@@H]3[C@H](O)[C@@H](C)[C@H]4OC(=O)c1ccc[nH]1 [Example 30] | 116 | < 0.00994 | 1 (≈ 1.66 µM) | 16 (≈ 26.5 µM) | 0.5 | 64 (≈ 106 µM) |  |  |  |  |  |  |  |  |
| C=CC[C@H]1[C@@H]2O[C@@]34/C(C)=C/[C@@H](C)[C@@H]([C@@H](C)O)OC(=O)[C@@H](OC)C[C@H]3C=C[C@@H]2[C@H]4C(=O)[C@@H]1C [Example 150, (3R,4S,7S,8aS,10aR,11S,12R,13R,14aR,14bS,E)-12-allyl-4-((R)-1-hydroxyethyl)-7-methoxy-1,3,13-trimethyl-3,4,8,8a,10a,11,12,13-octahydro-11,14b-epoxynaphtho[2,1-e]oxecine-6,14(7H,14aH)-dion] |  |  | > 64 | > 64 | > 64 | 64 (≈ 144 µM) |  |  |  |  |  |  | > 112 | 5.62 |
| CO[C@H]1C[C@H]2C(=O)C[C@H]3[C@H]4O[C@]2(/C(C)=C/[C@@H](C)[C@@H]([C@@H](C)O)OC1=O)[C@@H]3[C@H](O)[C@@H](C)[C@H]4OC(=O)c1ccc[nH]1 [Example 182] | > 188 | 0.0376 | 8 (≈ 15 µM) | 32 (≈ 60.2 µM) | 32 | > 128 |  |  |  |  |  |  |  |  |
| CO[C@H]1C[C@H]2C=C[C@H]3[C@H]4O[C@]2(/C(C)=C/[C@@H](C)[C@@H]([C@@H](C)O)OC1=O)[C@@H]3[C@H](O)[C@@H](C)[C@H]4OC(=O)c1cc(Br)c[nH]1 [Example 46] | 16.8 | 0.0151 | 2 (≈ 3.36 µM) | 128 (≈ 215 µM) | 8 | 64 (≈ 108 µM) |  |  |  |  |  |  |  |  |
